Counter-ions that a name gives are not always drawn.
What was measured:
[1] = molecular target: T1, human NPFFR1 (hNPFFR1) receptor (Homo sapiens, UniProt Q9GZQ6); assay: Human NPFFR1 evaluation using BRET biosensors (antagonist IC50); type: cell-based; conditions: hNPFFR1 transiently over-expressed in HEK-293 T cells; BRET signal; stimulation by EC80 RFRP-3
T1 construct: expressed in transfected cells; host or cells: HEK-293 T cells, transient co-transfection with polyethylenimine
Protocol: Compounds of the present invention were tested successively for their agonist and antagonist activities on human NPFFR1 (hNPFFR1) receptor transiently over-expressed in HEK-293 T cells. Compounds exert agonist activity if, by themselves in absence of neuropeptide RFRP-3 (also named NPVF) they activate hNPFFR1; and they exert antagonist activity if they decrease the action of RFRP-3 on the receptor.
The assay used to measure compound activity is based on BRET (Bioluminescence Resonance Energy Transfer) biosensors and is designed to monitor the plasma membrane translocation of protein that interacts with specific Ga subunit. The specific effector (luciferase tagged: BRET donor) recruited at the membrane will be in close proximity to a plasma membrane anchor (GFP tagged: BRET acceptor) to induce a BRET signal. Biosensors are described in the patent application WO 2016/041093 A1 (Biosensors for monitoring biomolecule localization and trafficking in cells).
HEK-293 T cells are maintained in Dulbecco's Modified Eagle's Medium supplemented with 10% Foetal Calf Serum, 1% Penicillin/Streptomycin at 37° C./5% CO2.
Cells are co-transfected using polyethylenimine (25 kDa linear) with four DNA plasmids encoding: hNPFFR1, GαoB, a Gi family specific intracellular effector fused to luciferase (BRET donor), a plasma membrane effector fused to GFP (BRET acceptor). After transfection, cells are cultured for 48 h at 37° C./5% CO2.
Receptor activity is detected by changes in BRET signal.
On the day of the assay, cells are detached using trypsin 0.05%, resuspended in assay buffer (1.8 mM CaCl2, 1 mM MgCl2, 2.7 mM KCl, 137 mM NaCl, 0.4 mM NaH2PO4, 5.5 mM D-Glucose, 11.9 mM NaHCO3, 25 mM Hepes) and seeded in 384 well plate at a density of 20,000 cells per well. Then, plates are equilibrated 3.5 hours at 37° C. before adding compounds.
Compounds and luciferase substrate are added to the cells using an automated device (Freedom Evo®, Tecan) and BRET readings are collected on EnVision (PerkinElmer) with specific filters (410 nm BW 80 nm, 515 nm BW 30 nm).
Agonist and antagonist activities of compounds are consecutively evaluated on the same cell plate. Agonist activity is first measured after 10 minutes incubation with compound alone on the cells. Then, cells are stimulated by an EC80 RFRP-3 concentration and luminescence is recorded for additional 10 minutes. EC80 RFRP-3 concentration is the concentration giving 80% of the maximal RFRP-3 response. Agonist or antagonist activities are evaluated in comparison to basal signals evoked by assay buffer or EC80 RFRP-3 alone, respectively.
For IC50 determination, a dose-response test is performed using 20 concentrations (ranging over 6 logs) of each compound. Dose-response curves are fitted using the sigmoidal dose-response (variable slope) analysis in GraphPad Prism software (GraphPad Software) and IC50 of antagonist activity is calculated. Dose-response experiments are performed in duplicate, in two independent experiments.

T1 sequence (Q9GZQ6 whole entry): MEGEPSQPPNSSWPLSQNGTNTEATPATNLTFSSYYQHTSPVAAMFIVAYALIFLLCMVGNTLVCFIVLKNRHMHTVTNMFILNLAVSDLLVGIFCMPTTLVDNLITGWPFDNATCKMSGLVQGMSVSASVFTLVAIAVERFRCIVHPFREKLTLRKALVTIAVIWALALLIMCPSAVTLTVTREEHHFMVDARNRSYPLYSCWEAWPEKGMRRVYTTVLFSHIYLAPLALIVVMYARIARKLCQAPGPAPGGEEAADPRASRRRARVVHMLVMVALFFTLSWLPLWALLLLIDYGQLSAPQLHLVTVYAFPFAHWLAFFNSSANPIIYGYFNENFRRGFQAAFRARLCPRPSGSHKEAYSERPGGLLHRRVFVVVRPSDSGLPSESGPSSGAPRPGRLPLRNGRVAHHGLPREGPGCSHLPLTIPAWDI

| SMILES | IC50 [1] [nM] | melting point [°C] |
| --- | --- | --- |
| CCc1nc(N)ccc1-c1cccc2cc3c(nc12)CCCC3.Cl [Example 113, 6-ethyl-5-(5,6,7,8-tetrahydroacridin-4-yl)pyridin-2-amine] | < 100 | 160 to 172 |
| CCc1nc(N)ccc1-c1c(C#N)ccc2cccnc12 [Example 153, 8-(6-amino-2-ethylpyridin-3-yl)quinoline-7-carbonitrile] | 100 to 1000 | – |
| CCc1nc(N)ccc1-c1ccc(F)cc1-c1ccc(N2CCOCC2)nc1.Cl [Example 82, 6-ethyl-5-(4-fluoro-2-(6-morpholinopyridin-3-yl)phenyl)pyridin-2-amine] | 100 to 1000 | 54 to 70 |
| Cl.Nc1ccc(-c2cccc3ccncc23)c(C2CC2)n1 [Example 15, 6-Cyclopropyl-5-(8-isoquinolyl)pyridin-2-amine] | 100 to 1000 | 200 to 215 |
| CCc1nc(N)ccc1-c1csc2cc(OC)ccc12 [Example 5, 6-Ethyl-5-(6-methoxybenzothiophen-3-yl)pyridin-2-amine] | > 1000 | 151 to 155 |
| CCc1nc(N)ccc1-c1c(F)c(F)cc2cccnc12.Cl [Example 111, 5-(6,7-difluoroquinolin-8-yl)-6-ethylpyridin-2-amine] | < 100 | 150 to 190 |
| CCCc1nc(N)ccc1-c1cccc2ccncc12.Cl [Example 9, 5-(8-Isoquinolyl)-6-propyl-pyridin-2-amine] | < 100 | 100 to 117 |
| CCc1nc(N)ccc1-c1c(Cl)ccc2cccnc12 [Example 110, 5-(7-chloroquinolin-8-yl)-6-ethylpyridin-2-amine] | < 100 | – |
| CCc1nc(N)ccc1-c1cccc2ccc(-c3ccccc3)nc12 [Example 116, 6-ethyl-5-(2-phenylquinolin-8-yl)pyridin-2-amine] | < 100 | – |
| Cl.Nc1ccc(-c2cccc3cccnc23)c(C2CC2)n1 [Example 14, 6-Cyclopropyl-5-(8-quinolyl)pyridin-2-amine] | 100 to 1000 | > 250 |
| Cn1ccc2cccc(-c3ccc(N)nc3N)c21 [Example 49, 3-(1-methyl-1H-indol-7-yl)pyridine-2,6-diamine] | < 100 | 100 to 117 |
| CC(C)c1nc(N)ccc1-c1csc2ccccc12.Cl [Example 10, 5-Benzo[b]thiophen-3-yl-6-isopropyl-pyridin-2-ylamine] | 100 to 1000 | > 250 |
| CCc1nc(N)ccc1-c1ccc(C)c2cccnc12.Cl [Example 96, 6-ethyl-5-(5-methylquinolin-8-yl)pyridin-2-amine] | 100 to 1000 | > 250 |
| CCc1nc(N)ccc1-c1c(F)cc(F)c2cccnc12.Cl [Example 108, 5-(5,7-difluoroquinolin-8-yl)-6-ethylpyridin-2-amine] | < 100 | 126 to 136 |
| CCc1nc(N)ccc1-c1ccccc1-c1ccc(O)nc1.Cl [Example 88, 5-(2-(6-amino-2-ethylpyridin-3-yl)phenyl)pyridin-2-ol] | 100 to 1000 | 95 to 120 |
| CCc1nc(N)ccc1-c1c(Cl)ccc2cc(F)cnc12 [Example 144, 5-(7-chloro-3-fluoroquinolin-8-yl)-6-ethylpyridin-2-amine] | < 100 | – |
| CCc1nc(N)ccc1-c1ccc(F)c2cccnc12.Cl [Example 1, 6-ethyl-5-(5-fluoroquinolin-8-yl)pyridin-2-amine] | < 100 | 120 to 140 |
| CCc1nc(N)ccc1-c1cccc2ccc(OCCN3CCOCC3)nc12 [Example 130, 6-ethyl-5-(2-(2-morpholinoethoxy)quinolin-8-yl)pyridin-2-amine] | 100 to 1000 | – |
| CCc1nc(N)ccc1-c1cccn2ccnc12.Cl [Example 102, 6-ethyl-5-(imidazo[1,2-a]pyridin-8-yl)pyridin-2-amine] | > 1000 | 95 to 135 |
| CCc1nc(N)ccc1-c1cccc2ccc(C(=O)N3CC4CCC(C3)O4)nc12.Cl [Example 171, (8-(6-amino-2-ethylpyridin-3-yl)quinolin-2-yl)(8-oxa-3-azabicyclo[3.2.1]octan-3-yl)methanone] | < 100 | 150 to 160 |

| SMILES | IC50 [1] [nM] | melting point [°C] |
| --- | --- | --- |
| CCc1nc(N)ccc1-c1cccc2ccc(C(=O)N(C)C)nc12 (as salt: hydrochloride) [Example 140, 8-(6-amino-2-ethylpyridin-3-yl)-N,N-dimethylquinoline-2-carboxamide] | – | 103 to 113 |
| CCc1nc(N)ccc1-c1cccc2ccoc12 [Example 79, 5-(benzofuran-7-yl)-6-ethylpyridin-2-amine] | 100 to 1000 | – |
| CCc1nc(N)ccc1-c1cccc2ccc(-c3cncnc3)nc12 [Example 124, 6-ethyl-5-(2-(pyrimidin-5-yl)quinolin-8-yl)pyridin-2-amine] | < 100 | – |
| CCc1nc(N)ccc1-c1c(F)ccc2ccc(N(CC)C(C)C)nc12.Cl | – | 214 to 229 |
| Nc1ccc(-c2cccc3cccnc23)c(N)n1 [Example 31, 3-(8-quinolyl)pyridine-2,6-diamine] | < 100 | – |
| CCc1nc(N)ccc1-c1cccc2sccc12 [Example 78, 5-(benzo[b]thiophen-4-yl)-6-ethylpyridin-2-amine] | 100 to 1000 | – |
| CCc1nc(N)ccc1-c1c(F)c(F)cc2cc(Cl)cnc12 [Example 149, 5-(3-chloro-6,7-difluoroquinolin-8-yl)-6-ethylpyridin-2-amine] | < 100 | – |
| Nc1ccc(-c2c(Cl)ccc3ccc(O)nc23)c(N)n1 [Example 63, 8-(2,6-diaminopyridin-3-yl)-7-chloroquinolin-2-ol] | < 100 | – |
| CCc1nc(N)ccc1-c1c(F)cc(F)c2cc(Cl)cnc12 [Example 148, 5-(3-chloro-5,7-difluoroquinolin-8-yl)-6-ethylpyridin-2-amine] | < 100 | – |
| CCc1nc(N)ccc1-c1c(F)ccc2cc(Br)cnc12 [Example 151, 5-(3-bromo-7-fluoroquinolin-8-yl)-6-ethylpyridin-2-amine] | < 100 | – |
| CCc1nc(N)ccc1-c1c(Cl)ccc2cc(Cl)cnc12 [Example 147, 5-(3,7-dichloroquinolin-8-yl)-6-ethylpyridin-2-amine] | < 100 | – |
| CCc1nc(N)ccc1-c1c(Cl)ccc2ccc(O)nc12 [Example 160, 8-(6-amino-2-ethylpyridin-3-yl)-7-chloroquinolin-2(1H)-one] | < 100 | – |
| CCc1nc(N)ccc1-c1cccc2c1N(C)C(=O)CC2 [Example 157, 8-(6-amino-2-ethylpyridin-3-yl)-1-methyl-3,4-dihydroquinolin-2(1H)-one] | > 1000 | – |
| CCc1nc(N)ccc1-c1c(F)ccc2ccc(N(CC)C3CCCCC3)nc12.Cl | – | 160 to 210 |
| CCc1nc(N)ccc1-c1cccc2ccc(C(=O)NC3COC3)nc12 [Example 175, 8-(6-amino-2-ethylpyridin-3-yl)-N-(oxetan-3-yl)quinoline-2-carboxamide] | – | 156 to 162 |
| CCc1nc(N)ccc1-c1cccc2ccc(-c3cccnc3)nc12 [Example 117, 6-ethyl-5-(2-(pyridin-3-yl)quinolin-8-yl)pyridin-2-amine] | < 100 | – |
| Nc1ccc(-c2c(F)ccc3cc(Cl)cnc23)c(N)n1 [Example 60, 3-(3-chloro-7-fluoroquinolin-8-yl)pyridine-2,6-diamine] | < 100 | – |
| CCc1nc(N)ccc1-c1c(F)ccc2cc(Cl)cnc12 [Example 146, 5-(3-chloro-7-fluoroquinolin-8-yl)-6-ethylpyridin-2-amine] | < 100 | – |
| Nc1ccc(-c2c(F)cc(F)c3cccnc23)c(N)n1 [Example 59, 3-(5,7-difluoroquinolin-8-yl)pyridine-2,6-diamine] | < 100 | – |
| CCc1nc(N)ccc1-c1cccc2ccc(C(=O)N(C)C)nc12 [Example 140, 8-(6-amino-2-ethylpyridin-3-yl)-N,N-dimethylquinoline-2-carboxamide] | 100 to 1000 | – |
